Assay results taken from patent US6358885B1, “Substituted phenylheterocyclic herbicides” (Mississippi State University, priority 1992, dated 2002).

Experiments:
Assay in all cases: Test B preemergence/postemergence greenhouse plant response rating 0 to 10
Details in all cases: 0 to 10 scale
morningglory = format: in vivo, Ipomoea hederacea
In short: (§1)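 Both application timings were run together: seeds got compound preemergence, and established seedlings (two to eighteen cm) got it postemergence. Non-phytotoxic solvent carried the chemical. Ratings are visual, versus controls, at twelve to sixteen days.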

crabgrass = format: in vivo, Digitaria spp.
In short: as §1

wheat = format: in vivo, Triticum aestivum
In short: as §1

sugar beet = format: in vivo, Beta vulgaris
In short: as §1

corn = format: in vivo, Zea mays
In short: as §1

lambsquarters = format: in vivo, Chenopodium album
In short: as §1

chickweed = format: in vivo, Stellaria media
In short: as §1

velvetleaf = format: in vivo, Abutilon theophrasti
In short: as §1

cocklebur = format: in vivo, Xanthium pensylvanicum
In short: as §1

giant foxtail = format: in vivo, Setaria faberii
In short: as §1

purple nutsedge = format: in vivo, Cyperus rotundus
In short: as §1

rice = format: in vivo, Oryza sativa
In short: as §1

sorghum = format: in vivo, Sorghum bicolor
In short: as §1

rape = format: in vivo, Brassica napus
In short: as §1

bedstraw = format: in vivo, Galium aparine
In short: as §1

barnyardgrass = format: in vivo, Echinochloa crus-galli
In short: as §1

wild buckwheat = format: in vivo, Polygonum convolvulus
In short: as §1

cheatgrass = format: in vivo, Bromus secalinus
In short: as §1

blackgrass = format: in vivo, Alopecurus myosuroides
In short: as §1

wild oat = format: in vivo, Avena fatua
In short: as §1

soybean = format: in vivo, Glycine max
In short: as §1

cotton = format: in vivo, Gossypium hirsutum
In short: as §1

barley = format: in vivo, Hordeum vulgare
In short: as §1

## C#CCOC(=O)COc1cc(-c2nn3c(c2Cl)CCCC3)c(F)cc1Cl [Compound 61]
morningglory; POSTEMERGENCE, Rate 10 g/ha
  Plant response rating, Morningglory: 7
morningglory; POSTEMERGENCE, Rate 50 g/ha
  Plant response rating, Morningglory: 10
morningglory; PREEMERGENCE, Rate 50 g/ha
  Plant response rating, Morningglory: 3
crabgrass; POSTEMERGENCE, Rate 10 g/ha
  Plant response rating, Crabgrass: 2
crabgrass; POSTEMERGENCE, Rate 50 g/ha
  Plant response rating, Crabgrass: 2
crabgrass; PREEMERGENCE, Rate 10 g/ha
  Plant response rating, Crabgrass: 0
crabgrass; PREEMERGENCE, Rate 50 g/ha
  Plant response rating, Crabgrass: 0
wheat; POSTEMERGENCE, Rate 10 g/ha
  Plant response rating, Wheat: 2
wheat; POSTEMERGENCE, Rate 50 g/ha
  Plant response rating, Wheat: 3
wheat; PREEMERGENCE, Rate 50 g/ha
  Plant response rating, Wheat: 0
Sugar beet; POSTEMERGENCE, Rate 10 g/ha
  Plant response rating, Sugar beet: 10
Sugar beet; POSTEMERGENCE, Rate 50 g/ha
  Plant response rating, Sugar beet: 10
Sugar beet; PREEMERGENCE, Rate 50 g/ha
  Plant response rating, Sugar beet: 10
corn; POSTEMERGENCE, Rate 10 g/ha
  Plant response rating, Corn: 3
corn; POSTEMERGENCE, Rate 50 g/ha
  Plant response rating, Corn: 5
corn; PREEMERGENCE, Rate 50 g/ha
  Plant response rating, Corn: 0
lambsquarters; POSTEMERGENCE, Rate 10 g/ha
  Plant response rating, Lambsquarter: 9
lambsquarters; POSTEMERGENCE, Rate 50 g/ha
  Plant response rating, Lambsquarter: 9
lambsquarters; PREEMERGENCE, Rate 50 g/ha
  Plant response rating, Lambsquarter: 9
chickweed; POSTEMERGENCE, Rate 10 g/ha
  Plant response rating, Chickweed: 2
chickweed; POSTEMERGENCE, Rate 50 g/ha
  Plant response rating, Chickweed: 2
chickweed; PREEMERGENCE, Rate 50 g/ha
  Plant response rating, Chickweed: 3
velvetleaf; POSTEMERGENCE, Rate 10 g/ha
  Plant response rating, Velvetleaf: 2
velvetleaf; POSTEMERGENCE, Rate 50 g/ha
  Plant response rating, Velvetleaf: 10
velvetleaf; PREEMERGENCE, Rate 50 g/ha
  Plant response rating, Velvetleaf: 10
cocklebur; POSTEMERGENCE, Rate 10 g/ha
  Plant response rating, Cocklebur: 4
cocklebur; POSTEMERGENCE, Rate 50 g/ha
  Plant response rating, Cocklebur: 8
cocklebur; PREEMERGENCE, Rate 10 g/ha
  Plant response rating, Cocklebur: 0
cocklebur; PREEMERGENCE, Rate 50 g/ha
  Plant response rating, Cocklebur: 0
Giant foxtail; POSTEMERGENCE, Rate 10 g/ha
  Plant response rating, Giant foxtail: 2
Giant foxtail; POSTEMERGENCE, Rate 50 g/ha
  Plant response rating, Giant foxtail: 2
Giant foxtail; PREEMERGENCE, Rate 10 g/ha
  Plant response rating, Giant foxtail: 0
Giant foxtail; PREEMERGENCE, Rate 50 g/ha
  Plant response rating, Giant foxtail: 0
Purple nutsedge; POSTEMERGENCE, Rate 10 g/ha
  Plant response rating, Nutsedge: 0
Purple nutsedge; POSTEMERGENCE, Rate 50 g/ha
  Plant response rating, Nutsedge: 2
Purple nutsedge; PREEMERGENCE, Rate 50 g/ha
  Plant response rating, Nutsedge: 10
rice; POSTEMERGENCE, Rate 10 g/ha
  Plant response rating, Rice: 2
rice; POSTEMERGENCE, Rate 50 g/ha
  Plant response rating, Rice: 4
rice; PREEMERGENCE, Rate 50 g/ha
  Plant response rating, Rice: 0
sorghum; POSTEMERGENCE, Rate 10 g/ha
  Plant response rating, Sorghum: 2
sorghum; POSTEMERGENCE, Rate 50 g/ha
  Plant response rating, Sorghum: 3
sorghum; PREEMERGENCE, Rate 50 g/ha
  Plant response rating, Sorghum: 0
rape; POSTEMERGENCE, Rate 10 g/ha
  Plant response rating, Rape: 1
rape; POSTEMERGENCE, Rate 50 g/ha
  Plant response rating, Rape: 8
rape; PREEMERGENCE, Rate 50 g/ha
  Plant response rating, Rape: 4
bedstraw; POSTEMERGENCE, Rate 10 g/ha
  Plant response rating, Bedstraw: 5
bedstraw; POSTEMERGENCE, Rate 50 g/ha
  Plant response rating, Bedstraw: 9
bedstraw; PREEMERGENCE, Rate 10 g/ha
  Plant response rating, Bedstraw: 0
bedstraw; PREEMERGENCE, Rate 50 g/ha
  Plant response rating, Bedstraw: 5
barnyardgrass; POSTEMERGENCE, Rate 10 g/ha
  Plant response rating, Barnyardgrass: 2
barnyardgrass; POSTEMERGENCE, Rate 50 g/ha
  Plant response rating, Barnyardgrass: 2
barnyardgrass; PREEMERGENCE, Rate 10 g/ha
  Plant response rating, Barnyardgrass: 0
barnyardgrass; PREEMERGENCE, Rate 50 g/ha
  Plant response rating, Barnyardgrass: 0
Wild buckwheat; POSTEMERGENCE, Rate 10 g/ha
  Plant response rating, Wild buckwheat: 3
Wild buckwheat; POSTEMERGENCE, Rate 50 g/ha
  Plant response rating, Wild buckwheat: 9
Wild buckwheat; PREEMERGENCE, Rate 50 g/ha
  Plant response rating, Wild buckwheat: 0
cheatgrass; POSTEMERGENCE, Rate 10 g/ha
  Plant response rating, Cheatgrass: 2
cheatgrass; POSTEMERGENCE, Rate 50 g/ha
  Plant response rating, Cheatgrass: 3
cheatgrass; PREEMERGENCE, Rate 10 g/ha
  Plant response rating, Cheatgrass: 0
cheatgrass; PREEMERGENCE, Rate 50 g/ha
  Plant response rating, Cheatgrass: 2
blackgrass; POSTEMERGENCE, Rate 10 g/ha
  Plant response rating, Blackgrass: 2
blackgrass; POSTEMERGENCE, Rate 50 g/ha
  Plant response rating, Blackgrass: 3
blackgrass; PREEMERGENCE, Rate 10 g/ha
  Plant response rating, Blackgrass: 0
blackgrass; PREEMERGENCE, Rate 50 g/ha
  Plant response rating, Blackgrass: 2
Wild oat; POSTEMERGENCE, Rate 10 g/ha
  Plant response rating, Wild oat: 1
Wild oat; POSTEMERGENCE, Rate 50 g/ha
  Plant response rating, Wild oat: 2
Wild oat; PREEMERGENCE, Rate 50 g/ha
  Plant response rating, Wild oat: 2
soybean; POSTEMERGENCE, Rate 10 g/ha
  Plant response rating, Soybean: 2
soybean; POSTEMERGENCE, Rate 50 g/ha
  Plant response rating, Soybean: 3
soybean; PREEMERGENCE, Rate 50 g/ha
  Plant response rating, Soybean: 0
cotton; POSTEMERGENCE, Rate 10 g/ha
  Plant response rating, Cotton: 9
cotton; POSTEMERGENCE, Rate 50 g/ha
  Plant response rating, Cotton: 10
cotton; PREEMERGENCE, Rate 10 g/ha
  Plant response rating, Cotton: 0
cotton; PREEMERGENCE, Rate 50 g/ha
  Plant response rating, Cotton: 0
barley; POSTEMERGENCE, Rate 10 g/ha
  Plant response rating, Barley: 1
barley; POSTEMERGENCE, Rate 50 g/ha
  Plant response rating, Barley: 2
barley; PREEMERGENCE, Rate 10 g/ha
  Plant response rating, Barley: 0
barley; PREEMERGENCE, Rate 50 g/ha
  Plant response rating, Barley: 0
